# Columns and labels:
# [1] = target: K-Ras G12D (Homo sapiens, UniProt P01116, G12D); test: K-Ras G12D activation by SOS1 (KRAS G12D activation by SOS1cat assay, HTRF); format: biochemical; details: mean, SOS1cat mediated loading of GST-KRAS G12D-GDP with fluorescent GTP analogue, read-out: K-Ras G12D activation by SOS1 IC50 - [mol/l] (mean)
# Method: (§1) Preparation of test compound dilutions. A 100-fold concentrated solution of the test compound (50 nL) in DMSO was transferred to microtiter test plates (384 or 1,536 wells, Greiner Bio-One, Germany) using either a Hummingbird liquid handler (Digilab, MA, USA) or an Echo acoustic system (Labcyte, CA, USA). Plates were sealed with adhesive foil or heat-sealed and stored at −20 C until use. Serial dilutions of test compounds were prepared in 100% DMSO using a Precision Pipetting System (BioTek, USA).
# (§2) Measurement and evaluation of inhibition data, calculation of IC50 values. Homogeneous time-resolved fluorescence (HTRF) was measured with a PHERAstar reader (BMG, Germany) using the HTRF module (excitation: 337 nm; emission 1: 620 nm, emission 2: 665 nm). The ratio of the emissions at 665 and 620 nm was used as the specific signal for further evaluation. The data were normalized using the controls: DMSO=0% inhibition, inhibition control wells with inhibitor control solution=100% inhibition. Compounds were tested in duplicates at up to 11 concentrations (e.g. 20 μM, 5.7 μM, 1.6 μM, 0.47 μM, 0.13 μM, 38 nM, 11 nM, 3.1 nM, 0.89 nM, 0.25 nM and 0.073 nM). IC50 values were calculated using a four-parameter fit, with a commercial software package (Genedata Screener, Switzerland).
# (§3) KRAS^G12C activation by SOS1^cat assay (“On-assay”). This assay quantifies SOS1^cat mediated loading of KRAS^G12C-GDP with a fluorescent GTP analogue. Detection of successful loading was achieved by measuring resonance energy transfer from anti-GST-terbium (FRET donor) bound to GST-KRAS^G12C to the loaded fluorescent GTP analogue (FRET acceptor). The fluorescent GTP analogue EDA-GTP-DY-647P1 [2′/3′-O-(2-aminoethyl-carbamoyl)guanosine-5′-triphosphate labelled with DY-647P1 (Dyomics GmbH, Germany)] was synthesized by Jena Bioscience (Germany) and supplied as a 1 mM aqueous solution. A KRAS^G12C working solution was prepared in assay buffer [10 mM HEPES pH 7.4 (AppliChem), 150 mM NaCl (Sigma), 5 mM MgCl2 (Sigma), 1 mM DTT (Thermo Fisher), 0.05% BSA Fraction V pH 7.0 (ICN Biomedicals), 0.0025% (v/v) Igepal (Sigma)] containing GST-KRAS^G12C (final concentration in assay 50 nM) and anti-GST-terbium (Cisbio, France) (final concentration in assay 1 nM). A SOS1^cat working solution was prepared in assay buffer containing SOS1^cat (final concentration 10 nM) and EDA-GTP-DY-647P1 (final concentration 100 nM). An inhibitor control solution was prepared in assay buffer containing EDA-GTP-DY-647P1 (final concentration 100 nM) without SOS1^cat. All steps of the assay were performed at 20° C. A volume of 3 μL of the KRAS^G12C working solution was added to all wells of the test plate using a Multidrop dispenser (Thermo LabSystems). After 15 min, 2 μL of the SOS1^ct working solution was added to all wells, except for the inhibitor control solution wells. After 30 min incubation, HTRF was measured.
# (§4) G12D and Wild-type KRAS activation by SOS1cat assays. These assays quantify human SOS1^cat mediated loading of wild-type GST-KRAS^WT-GDP or GST-KRAS^G12D-GDP with a fluorescent GTP analogue. The assay was performed similarly to the KRAS^G12C activation by SOS1^cat assay with the following differences: final concentration of SOS1^cat of 60 nM and final incubation time before measurement of 10 min for KRAS^G12D assay, final concentration of SOS1^cat of 20 nM and final incubation time before measurement of 15 min for wild-type KRAS assay, respectively. GST-KRAS^G12C was replaced by GST-KRAS^WT or GST-KRAS^G12D, respectively, also at 50 nM final concentration.
# KRAS^G12D activation by SOS1^cat assay (“On-assay”). This assay quantifies SOS1^cat mediated loading of KRAS^G12D-GDP with a fluorescent GTP analogue. Detection of successful loading was achieved by measuring resonance energy transfer from anti-GST-terbium (FRET donor) bound to GST-KRAS^G12D to the loaded fluorescent GTP analogue (FRET acceptor).
# [2] = target: K-Ras-wildtype (Homo sapiens, UniProt P01116); test: K-Ras-wildtype activation by SOS1 (wild-type KRAS activation by SOS1cat assay, HTRF); format: biochemical; details: mean, SOS1cat mediated loading of wild-type GST-KRAS-GDP with fluorescent GTP analogue, read-out: K-Ras-wildtype activation by SOS1 IC50 - [mol/l] (mean)
# Method: as §1, §2, §3, §4
# Wild-type KRAS activation by SOS1^cat assay. This assay quantifies human SOS1^cat mediated loading of wild-type GST-KRAS-GDP with a fluorescent GTP analogue. The assay was performed similarly to the KRAS^G12D activation by SOS1^cat assay just by replacement of GST-KRAS^G12D by wild-type GST-KRAS while concentrations of all components and incubation times were the same.
# Chain of K-Ras G12D (P01116 1-188 isoform P01116-2 G12D): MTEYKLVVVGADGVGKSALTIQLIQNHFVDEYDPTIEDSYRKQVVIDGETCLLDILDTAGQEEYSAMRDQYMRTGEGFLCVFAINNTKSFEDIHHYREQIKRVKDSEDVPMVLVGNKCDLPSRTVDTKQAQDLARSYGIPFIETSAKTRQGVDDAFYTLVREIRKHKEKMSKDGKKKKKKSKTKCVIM
# Chain of K-Ras-wildtype (P01116 1-188 isoform P01116-2): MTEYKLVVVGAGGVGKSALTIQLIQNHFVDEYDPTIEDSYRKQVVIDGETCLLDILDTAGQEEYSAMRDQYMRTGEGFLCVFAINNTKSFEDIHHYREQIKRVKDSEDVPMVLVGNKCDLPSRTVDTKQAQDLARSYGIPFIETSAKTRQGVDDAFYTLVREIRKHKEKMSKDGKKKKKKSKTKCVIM
SMILES,IC50 [1] [nM],IC50 [2] [nM]
"C#Cc1cccc2cc(O)cc(N(C)c3nc4c(N5CC6CCC(C5)N6)nc(OC[C@@]56CCCN5C[C@H](F)C6)nc4s3)c12 [Example 31, 4-{[7-(3,8-diazabicyclo[3.2.1]octan-3-yl)-5-{[(2R,7aS)-2-fluorotetrahydro-1H-pyrrolizin-7a(5H)-yl]methoxy}[1,3]thiazolo[5,4-d]pyrimidin-2-yl](methyl)amino}-5-ethynylnaphthalen-2-ol]",4.42,61.5
"C#Cc1c(F)ccc2cc(O)cc(Cc3nc4c(N5CC6CCC(C5)N6)nc(OC[C@@]56CCCN5C[C@H](F)C6)nc4s3)c12 [Example 32, 4-{[7-(3,8-diazabicyclo[3.2.1]octan-3-yl)-5-{[(2R,7aS)-2-fluorotetrahydro-1H-pyrrolizin-7a(5H)-yl]methoxy}[1,3]thiazolo[5,4-d]pyrimidin-2-yl]methyl}-5-ethynyl-6-fluoronaphthalen-2-ol]",3.95,99.8
